Data reported in patent publication US20200138764A1, “METHODS AND DEVICES FOR ACTIVATING ADIPOSE TISSUE” (The Procter & Gamble Company, priority 2018, published 2020).

How the values were obtained:
[1] = test system: adipocyte; assay: In vivo browning study in lean mice: Fat % by image analysis of H&E stained tissue; design: species or system Mice (C57BJ/6); details: mice, SC injection, Formula III one side and mirabegron other side; high and middle dosage merged; H&E images
Method: (§1) Mice (8-10 weeks old males C57BJ/6 strain) were obtained from a commercial vendor Charles River Laboratories. The animal study protocols were approved by the Institutional Animal Care and Use Committee, at the Procter & Gamble Company. Mice were acclimated to the facility for 14 days prior to initiating the study. From arrival, mice were housed in solid-bottom shoebox styled cages within room temperature of 22±2° C. with ad libitum access to water and regular rodent chow diet on a 12 h light/dark cycle. Mice were single housed and offered bedding and various enrichment options. The bedding and nesting material allowed the mice to thermoregulate to their desired level of comfort. Body weights were recorded at the beginning of the study, on each dosing day prior to dosing, and final weights were recorded at the end of the study. Overall food consumption, fecal output, and body appearance were monitored during cage side clinical observations but were not scientifically measured or tracked. During the dosing period, the animals were observed several times per day (for example, before and during injection, immediately to 30-min post injection, a few hours after injection, and end of work day).
[…] The injection was performed using a 25-27-gauge ½-⅝″ length needle via a subcutaneous (SC) injection near or into the inguinal fat pad region of the lower abdomen. Dosing was done twice a week injections over 3 weeks. Necropsy was done at week 4. […]
Segments of adipocyte and inter-cellular regions in a stained image were identified by Python […] package. […] The threshold between adipocyte and inter-cellular regions in a converted image was detected by the Otsu filter function of the […]. The detected value was adjusted by multiplying 1.1.
The ratio of adipocyte in an image was calculated from the pixel number of the segments—Adipocyte Pixel was divided by Total Pixel.
The significance of the difference in Adipocyte Ratio between treatment and control groups was assessed by the Negative Binomial Generalized Linear Mixed-Effects Model using glmer.nb function of R lme4 package. […]

[2] = test system: fat tissue; assay: qPCR biomarker analysis of fat tissue, in vivo; design: species or system Mice (C57BJ/6); details: mouse fat tissue, SC injection twice a week over 3 weeks
Method: as §1
Three groups of animals were treated with mirabegron (i.e. positive control) (n=4), placebo (n=2) and Formula III (n=6) on the left side while the right side received placebo in all three groups. The injection was performed using a 25-27-gauge ½-⅝″ length needle via a subcutaneous (SC) injection near or into the inguinal fat pad region of the lower abdomen. Dosing was done twice a week injections over 3 weeks. Necropsy was done at week 4. Test materials were administered at room temperature and in a neutral pH range. Three days after last dosing animals were euthanized with CO2 inhalation, inguinal fat pads were harvested, and tissues were processed for histology and biomarker analysis.
The qPCR biomarker analysis was conducted from flash frozen fat tissue from mouse study described above. First, RNA was manually extracted with RNAdvance Tissue kit (Agencourt). RNA was extracted from flash frozen fat tissue according to manufactuer's directions. For example, 5 mm steel beads were placed in the freezer for approximately 15-20 minutes. Next, Qiagen Buffer RLT was cooled to 4° C. for 20 minutes and placed in a 96 well 1.5 mL tube rack for sample transfer. Isopropanol was added to Agencourt wash buffer. 100 mL aliquots of 70% ethanol in water were prepared. The RNA Tissue beads were allowed to warm to 22° C. (˜30 minutes), and then the beads were shaken vigorously and intermittently for at least 15-20 minutes. 1 stainless steel bead was added to a 2 mL round bottom tube stored on dry ice. The tissue sample was then transferred to the 2 mL round bottom tube.
The tube rack was placed on wet ice. Then, the tubes were transferred from dry ice to the rack in wet ice and 350 μL of cold buffer RLT were added to the tubes. The beads were beaten at 30 Hz for 2 minutes. After bead beating, samples were centrifuged for 2 minutes. The supernatant was transferred into 96 well deep well isolation plate.
80 μL of RNATissue beads were combined with 320 μL of isopropanol to create a Bind Buffer. This solution was prepared fresh for each isolation with any unused solution discarded.
400 μL of Bind Buffer was added to the to RLT mixture and slowly mixed. The solution was incubated at room temperature for 10 minutes. Special care was taken to avoid the formation of bubbles while tip mixing.
The mixture was placed on a magnet (96 well plate—Agencourt SPRIPlate) for 6-10 minutes. After the solution became clear, the supernatant was removed from each tube while the tubes remained on the magnet and the solution was discarded.
The tubes were removed from the magnet and the pellets were washed with 800 μL of the Isopropanol Wash Buffer ten times. […]

Nc1nc(CC(=O)Nc2ccc(CCNC[C@H](O)c3ccccc3)cc2)cs1 [Mirabegron, mirabegron]
Average Fat % (Adipocyte Pixel / Total Pixel) [1]: 94.43% | Average Fold vs Placebo: AdipoQ [2]: 13.7 | Average Fold vs Placebo: Adrb3 [2]: 16.3 | Average Fold vs Placebo: Cidea [2]: 39.7 | Average Fold vs Placebo: Cox7a1 [2]: 27.8 | Average Fold vs Placebo: Cox8b [2]: 38.6 | Average Fold vs Placebo: Dio2 [2]: 8.3 | Average Fold vs Placebo: Elovl3 [2]: 19.1 | Average Fold vs Placebo: IL6 [2]: 3.3 | Average Fold vs Placebo: Ppargc1 [2]: 12.0 | Average Fold vs Placebo: Prdm16 [2]: 5.0 | Average Fold vs Placebo: Tfap2a [2]: 15.2 | Average Fold vs Placebo: UCP1 [2]: 170.3
